Earlier results, collected in patent US8637078B2, “Bilayer tablet comprising telmisartan and diuretic” (Boehringer Ingelheim International GmbH, priority 2005, dated 2014).

How the values were obtained:
[1] = composition with 3 to 50 wt. % telmisartan in dissolving matrix (basic agent, surfactant or emulsifier, water-soluble diluent); known from WO 2004/028505
[2] = both polymorphic forms A and B; physiological pH range of the gastrointestinal tract, pH 1 to 7

solubility raised by a factor [1]: several hundred | solubility in aqueous systems [2]: very poor solubility
SMILES: CCCc1nc2c(C)cc(-c3nc4ccccc4n3C)cc2n1Cc1ccc(-c2ccccc2C(=O)O)cc1 [telmisartan, 4′-[2-n-propyl-4-methyl-6-(1-methylbenzimidazol-2-yl)-benzimidazol-1-ylmethyl]-biphenyl-2-carboxylic acid]
